In patent US20230089267A1, “Compositions and Methods For Reducing Immune Intolerance and Treating Autoimmune Disorders” (Lapix Therapeutics, Inc., priority 2021, published 2023):

Columns and labels:
[1] = system: human B-cells (CD19+CD71+IgM+); assay: Regulatory B-cell induction in human PBMCs; assay type: cell-based; details: 10 ng/ml, five days
Method: 2×10^5 Total PBMCs or T-cell depleted PBMCs were cultured in a 96-well plate in the presence of ascending doses of Compound 2 ranging from 0 to 10 ng/ml for five days. At day 5, cells were washed and stained for CD19, CD71 and IgM for 30 minutes on ice, then cells were washed with PBS, and stained with viability dye to exclude dead cells.

[2] = system: Foxp3+/CD4+ T-cells of MS patients; assay: PBMCs of multiple sclerosis patients treated ex vivo; assay type: cell-based, human; details: up to 2.5 μM, five days, six subjects
Method: Total human PBMCs were isolated from six subjects with confirmed diagnosis of MS. On Day 0, 2×10^5 cells/well were incubated in a 96 round bottomed-well plate alone or with up to 2.5 μM Compound 2 for five days. On Day 5, cells were collected, washed and stained for surface staining (CD3, CD4), then viability dye to exclude dead cells. Intranuclear staining was performed after cell fixation and permeabilization for transcription factor FoxP3. Cells were washed and fixed for acquisition by Attune NXT flow cytometer. Data were analyzed by FlowJov10.

[3] = system: MOG35-55-induced murine EAE model; assay: Escalation treatment paradigm in MOG35-55-induced murine EAE model (Example 8); assay type: in vivo, mice
Method: Compound 2 (0.03 mg/ml) was formulated with hydroxypropyl beta cyclodextrin (HPCD) 1:80 (Compound 2:HPCD) and stored at 4° C. until use. Natalizumab, an anti-α4β1 integrin antibody is a monoclonal antibody that is approved by U.S. Food and Drug Administration (FDA) for the treatment of relapsing forms of MS. […] Natalizumab was diluted in PBS to a final concentration of 15 mg/ml before dosing. DMF is a disease-modifying therapy (DMT) recommended for the treatment of active relapsing multiple sclerosis. DMF (1 g) was dissolved in 50 ml of 4% solution of METHOCEL© to give a 20 mg/ml solution of DMF. The solution was stored at 4° C. until use.
Experimental autoimmune (allergic) encephalomyelitis (EAE) is considered to be the best non-clinical model of multiple sclerosis (MS). Over 6,000 papers have been published in scientific journals on this model. EAE is characterized by immune responses against CNS tissue and can be induced in animals by immunizing them against proteins of the CNS. In the active EAE model, mice are immunized with MOG35-55 peptide emulsified in Complete Freund's Adjuvant (CFA) by subcutaneous injection at the tail base (100 μg of […] per mouse) under anesthesia. On the day of injection (Day 0) and two days later (Day 2), mice receive an intraperitoneal injection of pertussis toxin (PT) in PBS at 200 ng/mouse/dose (0.1 mL). Symptoms typically develop in mice 9-14 days after immunization (Day 0). Daily observation and scoring of mice start on Day 7 and continue until the end of the study. Table 5 (see Example 4 above) details the expected clinical symptoms and the scoring criteria used in this study.
This study was designed to evaluate the early sustained use of Compound 2 versus DMF in a treatment escalation paradigm (sustained use cohort), and Compound 2 versus natalizumab after DMF failure (escalation cohort). All animals in the escalation cohorts received 14 doses of DMF or Compound 2, or 3 doses of natalizumab, as per group assignment.
Probability of disease control: Disease control was defined as a clinical score of less than 2.5. Animals in the different treatment groups were monitored after the 3:1:1 randomization. A score of 2.5 was recorded as an event and analyzed by survival analysis in GraphPad Prism 9. Animals not reaching a clinical score of 2.5 by day 14, the end of the treatment period, were assigned a score of zero for the survival analysis.
Efficacy of Compound 2 versus DMF in early sustained use: Animals in the DMF group that reached a score of 2.5 were randomized 1:1:1, as per FIG. 5A. Animals randomized to continue DMF treatment were given the remainder of the 14 DMF doses. Animals from the first randomization that were treated with Compound 2 after disease onset continued treatment for a total of 14 doses. After the 14th dose, treatment was stopped and clinical score and overall survival were monitored.
Efficacy of Compound 2 versus natalizumab in a treatment escalation cohort: Animals in the DMF group that reached a score of 2.5 were randomized 1:1:1, as per FIG. 5A. Animals randomized to natalizumab were dosed 100 μg/mouse IV every 3 days for 3 total doses starting the same day a score of 2.5 was recorded. Animals randomized to Compound 2 were dosed with 3 μg/mouse SC QD for 14 total doses starting on the same day a score of 2.5 was recorded.
Overall survival: Death due to the disease was monitored in the early sustained use cohort as well as the escalation cohort. Death by disease (clinical score of 5) was recorded as an event “1,” death due to ulceration or for ex vivo analysis was recorded as “0.” Animals surviving until the end of the study were recorded “0” on day 27. Survival analysis was done in GraphPad Prism 9.

passive MG model = assay: Passive myasthenia gravis model, adoptive transfer to RAG2−/− mice; assay type: in vivo; details: by day 10, SC daily for ten days
Method: In this passive MG model in B6 mice, donor mice (n=20, aged 6-8 weeks) were immunized with complete Freund's adjuvant (CFA) and nicotinic acetylcholine receptor (AChR) emulsion weekly for four weeks. Seven days after the last immunization, splenocytes were collected, and 10^6 cells/mouse were transferred to RAG2^−/− mice. The recipient mice (n=10/group) were treated one day after adoptive transfer with prednisone (1 μg/mouse) SC daily for ten days after disease onset or Compound 2 3 μg SC daily for ten days after disease onset, or were left untreated. Minimal manifestation of disease was defined as a return to a clinical score of 1 after an exacerbation (score 2 or higher). Time to return to minimal score was logged, and the likelihood of return was plotted for untreated animals, and standard of care (SOC; prednisone)- and Compound 2-treated animals.

[4] = system: MOG35-55-induced murine EAE model; assay: MOG35-55-induced murine EAE model, Compound 2 versus Compound 8 (Example 12); assay type: in vivo, mice; details: 3 μg/mouse/day SC, after ten days of treatment
Method: Mice were immunized with 100 μg MOG35-55 emulsified with CFA and pertussis toxin, as described in Example 4. At disease onset (clinical score 1), mice were randomized into two treatment groups, and received 3 μg/mouse/day SC of either Compound 2 or Compound 8.

[5] = system: pristane-induced lupus model; assay: Pristane-induced lupus model; assay type: in vivo, mice; details: 3 μg SC daily, interim data
Method: Four-week old female Balb/c mice received 0.5 ml IP injection of pristane (Sigma Aldrich). Eight weeks post pristane injection, all mice tested positive for anti-dsDNA antibody titers (FUJIFILM Wako Pure Chemical Corporation), indicating systemic disease onset. On Day 60, mice were randomized to treatment (n=12) (Compound 2, 3 μg SC daily) or control group (n=11), and treatment was started. Mice were monitored daily for cutaneous lupus symptoms by checking for the appearance of skin lesions.

[6] = escalation cohort after DMF failure (score 2.5), by day 14 after switching

N[C@@H](CNC(=O)Cc1ccc(OCc2cccc3ccccc23)cc1)C(=O)O [Compound 2, (S)-2-Amino-3-(2-(4-(naphthalen-1-ylmethoxy)phenyl)acetamido)propanoic acid]
percentage of B-reg (CD19+CD71+IgM+) ([1]; T-cell depleted PBMCs): 14.0% | percentage of B-reg (CD19+CD71+IgM+) ([1]; total PBMC cultures): 17.5% | MS patients whose T-cells responded (increase in percentage of Foxp3+/CD4+ T-cells) [2]: five out of six | disease course in early sustained use cohort ([3]; 14 doses, followed to end of study): better overall disease control during therapy (day 1 to 14) and after stopping therapy (day 14 to end of study) | mean clinical score after switching from DMF [3, 6]: 2.6 (SD=1.1) | median clinical score after switching from DMF [3, 6]: 2.5 | animals that survived until day 27, escalation cohort ([3]; switched from DMF): 8 out of 9 | overall survival, early sustained use cohort ([3]; to day 27): all animals treated with Compound 2 survived until day 27 | animals that progressed to a disease score of 2.5 ([3]; treatment from disease onset (score 1), over the entire treatment period (14 days)): 5 of the 9 | animals returned to minimal manifestation of disease (score 1) (passive MG model): 63% | mean clinical score, comparison of the two groups [4]: no statistical difference | incidence of cutaneous lupus ([5]; after two weeks of treatment): 8% | onset of cutaneous symptoms compared to untreated control mice [5]: delayed by two days
